{
  "source": "paper PMC6560211",
  "about": "“ApoAI-derived peptide increases glucose tolerance and prevents formation of atherosclerosis in mice” (Diabetologia, 2019)",
  "key": {"Lepr db (db/db) mice": {"test_system": "Lepr db (db/db) mice", "experiment": "GTT in db/db mice", "format": "in vivo, mouse", "conditions": "db/db 5.5 weeks", "method": "(§1) Male C57BL/6NTac mice (Taconic, Ejby, Denmark) at 8–9 weeks of age were acclimatised for 1 week on a normal chow diet, then changed to a high-fat diet for 2 weeks (diet-induced obesity; DIO), followed by GTT as indicated. Male Lepr^db (db/db) mice on a BKS background (Taconic) at 5 weeks of age were maintained on a normal chow diet and GTTs were performed at 5.5 and 14 weeks of age as indicated. Blood glucose levels were measured in fresh blood (C57: OneTouch Ultra2, Lifescan, Milpitas, CA, USA; db/db: GlucoSmart Swing, MSP bodmann, Bobingen, Germany) and insulin levels were assayed in serum using ELISA (Mercodia) at the times indicated in ESM Fig. 2. See ESM Methods for more details.\n(§2) Fig. 4 Acute treatment with RG54 improves glucose tolerance during GTTs in three models of type 2 diabetes. Male C57Bl/6 mice fed a high-fat diet for 2 weeks (a–d) or db/db mice at 5.5 (e–h) or 14 (i–l) weeks old were fasted overnight, then treated with a single i.p. injection of NaCl (negative control, 200 μl; C57, n=12; db/db 5.5 weeks, n=6; db/db 14 weeks, n=6), liraglutide (0.1 mg/kg; C57, n=11; db/db 5.5 weeks, n=6; db/db 14 weeks, n=6), ApoA-I (14 mg/kg; C57, n=12; db/db 5.5 weeks, n=6; db/db 14 weeks, n=6) or RG54 (12 mg/kg; C57, n=12; db/db 5.5 weeks, n=6; db/db 14 weeks, n=5). After a further 3 h, mice received an i.p. glucose load (40 mg/mouse for C57; 50 mg/mouse for db/db) followed by blood and plasma collection at the indicated times, and blood glucose (a,e,i) and plasma insulin (b,f,j) concentrations were determined. Total AUC was calculated (mmol/l × min for glucose, pmol/l × min for insulin) and then normalised to the average value of the relevant NaCl control group to give relative AUC (% control) for glucose (c,g,k) and insulin (d,h,l). Values are means ± SEM. *p≤0.05, **p≤0.01, ***p≤0.001 vs NaCl control […]\nWe next used type 2 diabetes models with a more advanced phenotype: db/db mice at 5.5 and 14 weeks of age.\nAt 14 weeks of age, mice were markedly obese with a mean ± SEM body weight of 55.3 ± 0.6 g. […] One mouse was excluded from RG54 treatment group because of very high residual insulin secretion prior to the experiment.\nMale C57BL/6NTac mice were purchased from Taconic (Ejby, Denmark) at 8-9 weeks of age, acclimatised for one week on normal chow diet, then changed to a High-Fat Diet (HFD; Research Diets D12492, 60% fat content) for 2 weeks, followed by glucose tolerance testing (GTT) with timings as indicated (ESM Figure 2). Male Leprdb mice (db/db) on BKS background purchased from Taconic (BKS.Cg-m+/+Leprdb/BomTac, Ejby, Denmark) at 5 weeks of age were maintained on normal chow diet and GTTs were performed at 5.5 and 14 weeks of age with timings as indicated (ESM Figure 2). For the GTTs, mice fasted overnight (9 h) were injected with the appropriate treatment, and after an additional 3 h given ip glucose (C57: 40 mg/mouse; db/db: 50 mg/mouse) followed by collection of serum samples at the indicated times. Blood glucose levels were measured in fresh blood (C57: OnetouchUltra2, Lifescan; db/db: GlucoSmart Swing, MSP bodmann) and insulin levels were assayed in serum using ELISA (Mercodia). db/db mice were independently randomized to treatments groups for GTT at each time point as no carry over was expected between experiments due to the acute nature of the treatment effects. Primary outcomes were blood glucose and insulin measurements during the GTT. C57BL/6NTac mice were euthanized immediately after each experiment whereas db/db were euthanized immediately after the GTT at 14 weeks of age. […]\nand reproducible clinical symptoms of diabetes than females in these models [5; 6] thus ensuring the reproducibility of clinical symptoms between animals within the study. […]"}, "DIO C57BL/6NTac mice": {"test_system": "DIO C57BL/6NTac mice", "experiment": "GTT in diet-induced obesity (DIO) mice", "format": "in vivo, mouse", "conditions": "for fasting glucose levels / fasting insulin levels / insulin sensitivity as measured by QUICKI: DIO mice, 3 h treatment, i.p.", "method": "as §1\nThe effect of RG54 peptide on glucose disposal was investigated in an established insulin-resistant mouse model. DIO mice were fasted for 9 h followed by a single i.p. dose of RG54 (12 mg/kg), ApoA-I (14 mg/kg), liraglutide (0.1 mg/kg), or an equal volume of NaCl solution. After a further 3 h fasting period, GTTs were performed (Fig. 4a,b).\nas §2\nWe directly compared the i.p. and s.c. injection routes in DIO mice. DIO mice were fasted for 9 h, followed by a single i.p. or s.c. injection of RG54 (12 mg/kg), ApoA-I (14 mg/kg), or an equal volume of NaCl solution. After a further 3 h fasting and incubation period, GTTs were performed. […] Finally, we assessed the dose response of s.c. RG54 to find treatment concentrations with full or partial effects on glycaemic control as compared with our positive control (Fig. 6).\nMale C57Bl/6 mice fed a high-fat diet for 2 weeks were fasted overnight, then treated with a single i.p. or s.c. injection of NaCl (negative control, 200 μl, n=6), ApoA-I (14 mg/kg, n=6) or RG54 (12 mg/kg, n=6). After a further 3 h, all mice received an i.p. glucose load (40 mg/mouse) followed by blood and plasma collection at the indicated times, and blood glucose (a,b) and plasma insulin (d,e) concentrations were determined for all injection routes. Total AUC was calculated (mmol/l × min for glucose, pmol/l × min for insulin) and then normalised to the average value of the relevant NaCl control group to give relative AUC (% control) for glucose (c) and insulin (f). Values are means ± SEM. ***p≤0.001 vs NaCl control […]\nMale C57BL/6NTac mice were purchased from Taconic (Ejby, Denmark) at 8-9 weeks of age, acclimatised for one week on normal chow diet, then changed to a High-Fat Diet (HFD; Research Diets D12492, 60% fat content) for 2 weeks, followed by glucose tolerance testing (GTT) with timings as indicated (ESM Figure 2). Male Leprdb mice (db/db) on BKS background purchased from Taconic (BKS.Cg-m+/+Leprdb/BomTac, Ejby, Denmark) at 5 weeks of age were maintained on normal chow diet and GTTs were performed at 5.5 and 14 weeks of age with timings as indicated (ESM Figure 2). For the GTTs, mice fasted overnight […]"}, "[1]": {"experiment": "rHDL formation, particle size by DLS", "conditions": "1:100 protein:lipid molar ratio, extruded 100 nm MLVs, 4 days (96 h), 24°C", "method": "1,2-dimyristoyl-sn-glycero-3-phosphocholine (DMPC; Avanti Polar Lipids, Alabaster, AL, USA) was formed into 100 nm multilamellar vesicles (MLV) via extrusion using the LiposoFast system (Avestin, Ottawa, ON, Canada) as previously described. MLV were incubated with RG54 or ApoA-I at the indicated ratios for 4 days at 24°C to form rHDL. The resulting particle sizes were measured by dynamic light scattering (DLS) using a Zetasizer APS (Malvern Instruments, Uppsala, Sweden).\nThe reduced initial rate may be due to a more complex binding pattern of the larger number of RG54 peptides needed per formed particle: four to five RG54 molecules (54 amino acids each) are needed to make up the size of full-length ApoA-I (243 amino acids). A qualitative assessment of particle formation was therefore next used to evaluate and compare the sizes of formed rHDL. The hydrodynamic diameters of lipid–protein complexes formed after extended incubation (96 h) of RG54 or ApoA-I with extruded 100 nm MLVs were estimated using DLS.\nESM Figure 4. Lipid clearance and peptide-lipid complex formation activity of RG54 compared with full-length ApoA-I. […]"}},
  "data": [
    {"compound": "CCCCCCCCCCCCCCCC(=O)N[C@@H](CCC(=O)NCCCC[C@H](NC(=O)[C@H](C)NC(=O)[C@H](C)NC(=O)[C@H](CCC(N)=O)NC(=O)CNC(=O)[C@H](CCC(=O)O)NC(=O)[C@H](CC(C)C)NC(=O)[C@H](Cc1ccc(O)cc1)NC(=O)[C@H](CO)NC(=O)[C@H](CO)NC(=O)[C@@H](NC(=O)[C@H](CC(=O)O)NC(=O)[C@H](CO)NC(=O)[C@@H](NC(=O)[C@H](Cc1ccccc1)NC(=O)[C@@H](NC(=O)CNC(=O)[C@H](CCC(=O)O)NC(=O)[C@H](C)NC(=O)[C@@H](N)Cc1c[nH]cn1)[C@@H](C)O)[C@@H](C)O)C(C)C)C(=O)N[C@@H](CCC(=O)O)C(=O)N[C@@H](Cc1ccccc1)C(=O)N[C@H](C(=O)N[C@@H](C)C(=O)N[C@@H](Cc1c[nH]c2ccccc12)C(=O)N[C@@H](CC(C)C)C(=O)N[C@H](C(=O)N[C@@H](CCCNC(=N)N)C(=O)NCC(=O)N[C@@H](CCCNC(=N)N)C(=O)NCC(=O)O)C(C)C)[C@@H](C)CC)C(=O)O", "note": "[liraglutide, reference compound]", "values": [
      {"measurement": "insulin secretion at the 15-min time point", "setting": "Lepr db (db/db) mice; liraglutide 0.1 mg/kg i.p.", "result": "modest, transient increase"},
      {"measurement": "overall insulin AUC", "setting": "Lepr db (db/db) mice; liraglutide 0.1 mg/kg i.p.", "result": "not increased"},
      {"measurement": "fasting glucose levels", "setting": "DIO C57BL/6NTac mice", "result": "significantly lowered"},
      {"measurement": "fasting insulin levels", "setting": "DIO C57BL/6NTac mice", "result": "no concomitant increase"},
      {"measurement": "insulin sensitivity as measured by QUICKI", "setting": "DIO C57BL/6NTac mice", "result": "no change"}
    ]},
    {"compound": "ApoA-I: Recombinant human ApoA-I, full-length (243 amino acids), used as control", "values": [
      {"measurement": "fasting glucose levels", "setting": "Lepr db (db/db) mice; 3 h treatment, i.p.", "result": "significantly lowered"},
      {"measurement": "fasting insulin secretion", "setting": "Lepr db (db/db) mice; 3 h treatment, i.p.", "result": "no significant changes"},
      {"measurement": "insulin sensitivity as measured by QUICKI", "setting": "Lepr db (db/db) mice; 3 h treatment, i.p.", "result": "no concomitant change"},
      {"measurement": "fasting glucose levels", "setting": "DIO C57BL/6NTac mice", "result": "significantly lowered"},
      {"measurement": "fasting insulin levels", "setting": "DIO C57BL/6NTac mice", "result": "no concomitant increase"},
      {"measurement": "insulin sensitivity as measured by QUICKI", "setting": "DIO C57BL/6NTac mice", "result": "no change"},
      {"measurement": "insulin secretion in GTT", "setting": "DIO C57BL/6NTac mice; route comparison, i.p. injection, RG54 12 mg/kg, ApoA-I 14 mg/kg, n=6", "result": "increased insulin secretion"},
      {"measurement": "lipid-protein complexes formed (DLS frequency plots)", "setting": "[1]", "result": "single peaks corresponding to rHDL particles"}
    ]}
  ]
}
